Assay results taken from patent publication US4973673A, “Serine analogs of BU-3608 antibiotics” (Bristol-Myers Company, priority 1988, dated 1990).
≈ marks a conversion by molar mass, not a printed value. Like-named read-outs stand apart in the source and are kept apart here.

Columns and labels:
Candida albicans IAM4888 = assay: Serial agar dilution MIC, Sabouraud dextrose agar; type: cell-based; conditions: pH 7.0, 40 hours at 28° C.
Protocol: (§1) Antifungal activities of representative compounds of the present invention were evaluated both in vitro and in vivo. The minimum inhibitory concentrations (MICs) against various fungi were determined by serial agar dilution method using Sabouraud dextrose agar. Thus, approximately 0.003 ml of fungal suspension containing 10^6 cells/ml was applied to the surface of agar plates containing the test antibiotics.

[1] = tested on: Sporothrix schenckii IFO8158; assay: Serial agar dilution MIC, Sabouraud dextrose agar; type: cell-based; conditions: pH 7.0, 40 hours at 28° C.
Protocol: as §1

Mucor spinosus IFO5317 = assay: Serial agar dilution MIC, Sabouraud dextrose agar; type: cell-based; conditions: pH 7.0, 40 hours at 28° C.
Protocol: as §1

[2] = tested on: Petriellidium boydii IFO8073; assay: Serial agar dilution MIC, Sabouraud dextrose agar; type: cell-based; conditions: Scedosporium boydii, pH 7.0, 40 hours at 28° C.
Protocol: as §1

[3] = tested on: Cryptococcus neoformans D49; assay: Serial agar dilution MIC, Sabouraud dextrose agar; type: cell-based; conditions: pH 7.0, 40 hours at 28° C.
Protocol: as §1

A. flavus FA21436 = assay: Serial agar dilution MIC, Sabouraud dextrose agar; type: cell-based; conditions: Aspergillus flavus, pH 7.0, 40 hours at 28° C.
Protocol: as §1

[4] = tested on: Fusarium moniliforme A2284; assay: Serial agar dilution MIC, Sabouraud dextrose agar; type: cell-based; conditions: Fusarium verticillioides, pH 7.0, 40 hours at 28° C.
Protocol: as §1

T. mentagrophytes #4329 = assay: Serial agar dilution MIC, Sabouraud dextrose agar; type: cell-based; conditions: Trichophyton mentagrophytes, pH 7.0, 40 hours at 28° C.
Protocol: as §1

[5] = tested on: Blastomyces dermatitidis D40; assay: Serial agar dilution MIC, Sabouraud dextrose agar; type: cell-based; conditions: pH 7.0, 40 hours at 28° C.
Protocol: as §1

C. albicans A9540 [6] = assay: Serial agar dilution MIC, Sabouraud dextrose agar; type: cell-based; conditions: Candida albicans, pH 7.0, 40 hours at 28° C.
Protocol: as §1

[7] = tested on: Aspergillus fumigatus IAM2530; assay: Serial agar dilution MIC, Sabouraud dextrose agar; type: cell-based; conditions: pH 7.0, 40 hours at 28° C.
Protocol: as §1

[8] = tested on: Trichophyton mentagrophytes D155; assay: Serial agar dilution MIC, Sabouraud dextrose agar; type: cell-based; conditions: pH 7.0, 40 hours at 28° C.
Protocol: as §1

C. neoformans IAM4514 [9] = assay: Serial agar dilution MIC, Sabouraud dextrose agar; type: cell-based; conditions: Cryptococcus neoformans, pH 7.0, 40 hours at 28° C.
Protocol: as §1

A. fumigatus IAM2034 [10] = assay: Serial agar dilution MIC, Sabouraud dextrose agar; type: cell-based; conditions: Aspergillus fumigatus, pH 7.0, 40 hours at 28° C.
Protocol: as §1

C. albicans A9540 [11] = assay: In vivo antifungal activity, intravenous infection in mice; parameters: species or system Male ICR mice; conditions: Candida albicans, 480 h, survival on 20th day, read-out: PD50 (50% protective dose)
Protocol: (§2) In vivo antifungal activities were evaluated against intravenous infections with Candida albicans A9540, Cryptococcus neoformans IAM4514 and Aspergillus fumigatus IAM2034 in mice. Candida albicans and Cryptococcus neoformans were cultured for 18 and 48 hours, respectively, at 28° C. in YGP medium [yeast extract(0.2%), glucose(1.5%), peptone(0.5%), K2 HPO4 (0.05%) and MgSO4 (0.05%)] and suspended in saline. Aspergillus fumigatus was cultured for 7 days at 28° C. on YGP agar slant and suspended in saline. Spores were collected by filtering fungal suspension through gauze. Male ICR mice weighing 20 to 24 g were infected intravenously with about 10 times the median lethal dose of the fungi.
(§3) Test compounds were administered at various doses to groups of 5 mice each intravenously either once just after fungal challenge (day 0) or once daily for 5 days from day 0 to day 4 (qd×5). The 50% protective dose (PD50) was calculated from survival rates recorded on the 20th day after fungal challenge. All control animals died within 7 to 15 days after fungal infection.

[12] = tested on: calcium ion and calmodulin-dependent cyclic nucleotide phosphodiesterase; conditions: background statement; cited from earlier work
C. neoformans IAM4514 [13] = assay: In vivo antifungal activity, intravenous infection in mice; parameters: species or system Male ICR mice; conditions: Cryptococcus neoformans, 480 h, survival on 20th day, read-out: PD50 (50% protective dose)
Protocol: as §2, §3

A. fumigatus IAM2034 [14] = assay: as above; parameters: species or system Male ICR mice; conditions: Aspergillus fumigatus, 480 h, survival on 20th day, read-out: PD50 (50% protective dose)
Protocol: as §2, §3

mice = assay: Acute toxicity (LD50) in mice, single intravenous dose; type: in vivo; conditions: at 600 mg/kg, the highest dose tested
Protocol: The LD50 for N,N-dimethyl BU-3608 FA-2 was determined in mice after a single intravenous dose.

[15] = single dose just after challenge

Compound | MIC (Candida albicans IAM4888) [mg/L] | MIC [1] [mg/L] | MIC (Mucor spinosus IFO5317) [mg/L] | MIC [2] [mg/L] | MIC [3] [mg/L] | MIC (A. flavus FA21436) [mg/L] | MIC [4] [mg/L] | MIC (T. mentagrophytes #4329) [mg/L] | MIC [5] [mg/L] | MIC (C. albicans A9540 [6]) [mg/L] | MIC [7] [mg/L] | MIC [8] [mg/L] | MIC (C. neoformans IAM4514 [9]) [mg/L] | MIC (A. fumigatus IAM2034 [10]) [mg/L] | ED50 (C. albicans A9540 [11]; [15]) [mg/kg] | further results
CN[C@@H]1[C@H](O[C@@H]2OC[C@@H](O)[C@H](O)[C@H]2O)[C@@H](O)[C@H](O[C@H]2c3cc(C)c(C(=O)N[C@H](CO)C(=O)O)c(O)c3-c3c(cc4c(c3O)C(=O)c3cc(OC)cc(O)c3C4=O)[C@@H]2O)O[C@@H]1C [BU-3608 FA-1] | 6.3 (≈ 7.35 µM) | 1.6 (≈ 1.87 µM) | > 100 | 12.5 (≈ 14.6 µM) | 0.8 (≈ 0.934 µM) | 6.3 (≈ 7.35 µM) | 6.3 (≈ 7.35 µM) | 6.3 (≈ 7.35 µM) | 3.1 (≈ 3.62 µM) | 12.5 (≈ 14.6 µM) | 3.1 (≈ 3.62 µM) | 6.3 (≈ 7.35 µM) | 0.8 (≈ 0.934 µM) | 6.3 (≈ 7.35 µM) | 18 | –
COc1cc(O)c2c(c1)C(=O)c1c(cc3c(c1O)-c1c(cc(C)c(C(=O)N[C@H](CO)C(=O)O)c1O)[C@H](O[C@@H]1O[C@H](C)[C@H](N)[C@H](O[C@@H]4OC[C@@H](O)[C@H](O)[C@H]4O)[C@H]1O)[C@H]3O)C2=O [BU-3608 FA-2] | 6.3 (≈ 7.48 µM) | 1.6 (≈ 1.9 µM) | > 100 | 25 (≈ 29.7 µM) | 0.8 (≈ 0.949 µM) | 6.3 (≈ 7.48 µM) | 6.3 (≈ 7.48 µM) | 6.3 (≈ 7.48 µM) | 3.1 (≈ 3.68 µM) | 6.3 (≈ 7.48 µM) | 3.1 (≈ 3.68 µM) | 6.3 (≈ 7.48 µM) | 0.8 (≈ 0.949 µM) | 6.3 (≈ 7.48 µM) | 7.4 | –
CN[C@@H]1[C@H](O)[C@@H](O)[C@H](O[C@H]2c3cc(C)c(C(=O)N[C@H](CO)C(=O)O)c(O)c3-c3c(cc4c(c3O)C(=O)c3cc(OC)cc(O)c3C4=O)[C@@H]2O)O[C@@H]1C [Des-xylosyl BU-3608 FA-1] | 3.1 (≈ 4.28 µM) | 6.3 (≈ 8.69 µM) | 12.5 (≈ 17.2 µM) | > 100 | 1.6 (≈ 2.21 µM) | 50 (≈ 69 µM) | > 100 | 12.5 (≈ 17.2 µM) | 6.3 (≈ 8.69 µM) | 3.1 (≈ 4.28 µM) | 6.3 (≈ 8.69 µM) | 12.5 (≈ 17.2 µM) | 1.6 (≈ 2.21 µM) | 6.3 (≈ 8.69 µM) | – | –
COc1cc(O)c2c(c1)C(=O)c1c(cc3c(c1O)-c1c(cc(C)c(C(=O)N[C@H](CO)C(=O)O)c1O)[C@H](O[C@@H]1O[C@H](C)[C@H](N)[C@H](O)[C@H]1O)[C@H]3O)C2=O [Des-xylosyl BU-3608 FA-2] | 3.1 (≈ 4.36 µM) | 6.3 (≈ 8.87 µM) | 25 (≈ 35.2 µM) | > 100 | 3.1 (≈ 4.36 µM) | 50 (≈ 70.4 µM) | > 100 | 12.5 (≈ 17.6 µM) | 6.3 (≈ 8.87 µM) | 3.1 (≈ 4.36 µM) | 12.5 (≈ 17.6 µM) | 12.5 (≈ 17.6 µM) | 3.1 (≈ 4.36 µM) | 12.5 (≈ 17.6 µM) | – | –
COc1cc(O)c2c(c1)C(=O)c1c(cc3c(c1O)-c1c(cc(C)c(C(=O)N[C@H](CO)C(=O)O)c1O)[C@H](O[C@@H]1O[C@H](C)[C@H](N(C)C)[C@H](O)[C@H]1O)[C@H]3O)C2=O [Des-xylosyl N,N-dimethyl BU-3608 FA-2] | 6.3 (≈ 8.53 µM) | 3.1 (≈ 4.2 µM) | 25 (≈ 33.8 µM) | 100 (≈ 135 µM) | 1.6 (≈ 2.17 µM) | 12.5 (≈ 16.9 µM) | 50 (≈ 67.7 µM) | 6.3 (≈ 8.53 µM) | 3.1 (≈ 4.2 µM) | 6.3 (≈ 8.53 µM) | 6.3 (≈ 8.53 µM) | 6.3 (≈ 8.53 µM) | 1.6 (≈ 2.17 µM) | 6.3 (≈ 8.53 µM) | – | –
CC(=O)Cc1cc2c(c(O)c1C(=O)O)-c1cc3c(c(O)c1CC2)C(=O)c1c(O)cc(O)cc1C3=O [KS-619-1] | – | – | – | – | – | – | – | – | – | – | – | – | – | – | – | inhibitor of calcium ion and calmodulin-dependent cyclic nucleotide phosphodiesterase [12]: inhibitor of calcium ion and calmodulin-dependentcyclic nucleotide phosphodiesterase
COc1cc(O)c2c(c1)C(=O)c1c(cc3c(c1O)-c1c(cc(C)c(C(=O)N[C@H](CO)C(=O)O)c1O)[C@H](O[C@@H]1O[C@H](C)[C@H](N(C)C)[C@H](O[C@@H]4OC[C@@H](O)[C@H](O)[C@H]4O)[C@H]1O)[C@H]3O)C2=O [N,N-dimethyl BU-3608 FA-2] | 3.1 (≈ 3.56 µM) | 1.6 (≈ 1.84 µM) | – | – | 0.8 (≈ 0.919 µM) | 25 (≈ 28.7 µM) | 25 (≈ 28.7 µM) | 6.3 (≈ 7.23 µM) | 6.3 (≈ 7.23 µM) | 6.3 (≈ 7.23 µM) | 3.1 (≈ 3.56 µM) | 12.5 (≈ 14.4 µM) | 0.8 (≈ 0.919 µM) | 3.1 (≈ 3.56 µM) | 9 | ED50 (C. albicans A9540 [11]; qd × 5 (day 0 to day 4)): 7.5 mg/kg; ED50 (C. neoformans IAM4514 [13]; qd × 5 (day 0 to day 4)): 2.8 mg/kg; ED50 (C. neoformans IAM4514 [13]; [15]): 11 mg/kg; ED50 (A. fumigatus IAM2034 [14]; qd × 5 (day 0 to day 4)): 15 mg/kg; ED50 (A. fumigatus IAM2034 [14]; [15]): 36 mg/kg; LD50 determination: lethal toxicity and toxic signs (mice): neither lethal toxicity nor any significant toxic sign was observed
